# Reference: US9931347B2, “Pharmaceutical compound” (IOmet Pharma Ltd., priority 2013, dated 2018)
# Target: T1, IDO (SKOV3 human ovarian adenocarcinoma cells, IFN-γ induced) (Homo sapiens, UniProt P14902)
# T1 construct: IDO expression was induced in the SKOV3 cells by the addition of 500 ng/ml IFN-γ; endogenous in cells; host or cells: SKOV3 human ovarian adenocarcinoma cells, induced with IFN-γ
# Assay: SKOV3 Kynurenine cell based assay
# Conditions: IDO induced by 500 ng/ml IFN-γ, 500 μM L-tryptophan, 48 hours
# Description: (§1) Exemplary compounds of the invention were prepared, and tested to determine their effect as TDO and/or IDO inhibitors. Two different assays were employed: 1. a cell-based assay for detecting the effect of test compounds on kynurenine production in two different cancer cell types. This assay utilised cancer cells which expressed either TDO or IDO and as such was used as a means of testing compound activity at these two enzymes in a cell-based context. 2. a TDO and IDO biochemical coupled assay which utilised recombinantly produced and purified TDO and IDO enzymes in combination with the enzyme formamidase. This coupled enzyme system allowed conversion of N-formylkynurenine produced by TDO or IDO activity to kynurenine which was then quantified by fluorescence following addition of Erhlich's Reagent The protocols for these are set out below.
# (§2) A172 (human glioblastoma) and SKOV3 (human ovarian adenocarcinoma) cells were seeded in a 96 well plate at 30,000 or 40,000 cells per well respectively in phenol red-free RPMI supplemented with 10% FCS, 2 mM L-glutamine and 500 μM L-tryptophan. IDO expression was induced in the SKOV3 cells by the addition of 500 ng/ml IFN-γ. Cells were incubated at 37° C. with or without the addition of test compound. After 48 hours, the cells were removed by centrifugation and Erhlich's reagent was added to the supernatant.
# T1 sequence (P14902 whole entry): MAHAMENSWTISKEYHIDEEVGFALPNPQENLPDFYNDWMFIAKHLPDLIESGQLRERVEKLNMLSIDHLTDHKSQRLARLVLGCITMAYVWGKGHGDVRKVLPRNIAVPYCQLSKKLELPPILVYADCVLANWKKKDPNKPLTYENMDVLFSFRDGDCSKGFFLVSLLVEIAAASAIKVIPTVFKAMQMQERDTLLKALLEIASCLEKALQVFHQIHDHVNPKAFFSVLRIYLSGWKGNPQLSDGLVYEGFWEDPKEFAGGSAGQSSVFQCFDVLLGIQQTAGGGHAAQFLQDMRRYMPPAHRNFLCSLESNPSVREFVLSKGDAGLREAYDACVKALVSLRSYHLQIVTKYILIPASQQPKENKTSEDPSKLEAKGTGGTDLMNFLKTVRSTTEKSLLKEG
row,SMILES,SKOV3 Kynurenine cell based assay pIC50
1,CC(=O)N1CCN(c2c[nH]c3ccccc23)CC1(C)C [Compound 299],+ (+ = pIC50 4.00-4.99)
2,O=S(=O)(N1CCCC1)N1CCC(c2c[nH]c3ccccc23)CC1 [Compound 213],+ (+ = pIC50 4.00-4.99)
3,Cc1ccc2c(C3CCN(S(C)(=O)=O)CC3)c[nH]c2c1 [Compound 207],+ (+ = pIC50 4.00-4.99)
4,CS(=O)(=O)N1CCC(c2c[nH]c3c(Cl)cccc23)CC1 [Compound 235],+ (+ = pIC50 4.00-4.99)
5,CC(=O)N1CC=C(c2c[nH]c3ccc(C(F)(F)F)cc23)CC1 [Compound 229],+ (+ = pIC50 4.00-4.99)
6,CCCc1cc(C(=O)N2CCC(c3c[nH]c4cc(F)ccc34)CC2)[nH]n1 [Compound 277],+ (+ = pIC50 4.00-4.99)
7,CC(=O)N1CCC(c2c[nH]c3ccc(C(F)(F)F)cc23)CC1 [Compound 241],+ (+ = pIC50 4.00-4.99)
8,CS(=O)(=O)N1CCC(c2c[nH]c3ccc(Cl)cc23)CC1 [Compound 239],++ (++ = pIC50 5.00-5.99)
9,CS(=O)(=O)N1CCC(c2c[nH]c3ccccc23)C(O)C1 (centres unmarked) [Compound 187],+− (+− = pIC50 <4.00)
10,CS(=O)(=O)N1CCC(C2C(=O)Nc3ccc(C(F)(F)F)cc32)CC1 (centres unmarked) [Compound 310],+ (+ = pIC50 4.00-4.99)
11,CS(=O)(=O)N1CCC(=C2C(=O)Nc3ccc(Br)cc32)CC1 [Compound 305],+ (+ = pIC50 4.00-4.99)
12,CCN(CC)C(=O)N1CCC(c2c[nH]c3ccccc23)CC1 [Compound 211],+ (+ = pIC50 4.00-4.99)
13,CS(=O)(=O)N1CCC(C2C(=O)Nc3ccc(Br)cc32)CC1 (centres unmarked) [Compound 306],++ (++ = pIC50 5.00-5.99)
14,CS(=O)(=O)N1CCC(C2C(=O)Nc3ccc(C#N)cc32)CC1 (centres unmarked) [Compound 312],+ (+ = pIC50 4.00-4.99)
15,CC(=O)N1CCC(c2c(C)[nH]c3ccccc23)CC1 [Compound 195],+ (+ = pIC50 4.00-4.99)
16,CC(=O)N1CCC(c2c[nH]c3cc(Cl)c(F)cc23)CC1 [Compound 242],+ (+ = pIC50 4.00-4.99)
17,CS(=O)(=O)N1CCC(C2C(=O)Nc3ccc(Cl)cc32)CC1 (centres unmarked) [Compound 294],++ (++ = pIC50 5.00-5.99)
18,CC(=O)N1CC=C(c2c[nH]c3cc(C#N)ccc23)CC1 [Compound 214],+ (+ = pIC50 4.00-4.99)
19,CS(=O)(=O)N1CCCN(c2c[nH]c3ccccc23)CC1 [Compound 302],+ (+ = pIC50 4.00-4.99)
20,CS(=O)(=O)N1CCC(c2c[nH]c3cc(OCc4ccccc4)ccc23)CC1 [Compound 222],+ (+ = pIC50 4.00-4.99)

# Target: T2, TDO (A172 human glioblastoma cells) (Homo sapiens, UniProt P48775)
# T2 construct: This assay utilised cancer cells which expressed either TDO or IDO; endogenous in cells; host or cells: A172 human glioblastoma cells
# Assay: A172 Kynurenine cell based assay
# Conditions: 500 μM L-tryptophan, 48 hours, kynurenine by Erhlich's reagent
# Description: as §1
# as §2, with “supernatant. The Erhlich's reagent was incubated for 5 minutes before the absorbance was read at 490 nm.” for “supernatant.”
# T2 sequence (P48775 whole entry): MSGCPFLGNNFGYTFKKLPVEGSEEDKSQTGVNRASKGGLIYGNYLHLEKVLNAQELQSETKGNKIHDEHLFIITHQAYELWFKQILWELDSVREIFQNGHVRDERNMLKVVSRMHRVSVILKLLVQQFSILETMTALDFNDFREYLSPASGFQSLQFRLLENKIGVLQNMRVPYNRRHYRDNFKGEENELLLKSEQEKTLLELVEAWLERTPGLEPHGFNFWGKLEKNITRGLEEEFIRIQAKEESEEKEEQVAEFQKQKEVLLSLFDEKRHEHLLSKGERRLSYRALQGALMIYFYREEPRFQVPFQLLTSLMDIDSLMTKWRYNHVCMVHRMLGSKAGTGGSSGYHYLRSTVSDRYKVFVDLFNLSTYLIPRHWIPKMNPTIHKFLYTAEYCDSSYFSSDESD
row,SMILES,A172 Kynurenine cell based assay pIC50
1,CC(=O)N1CCN(c2c[nH]c3ccccc23)CC1(C)C [Compound 299],++ (++ = pIC50 5.00-5.99)
2,O=S(=O)(N1CCCC1)N1CCC(c2c[nH]c3ccccc23)CC1 [Compound 213],+ (+ = pIC50 4.00-4.99)
3,Cc1ccc2c(C3CCN(S(C)(=O)=O)CC3)c[nH]c2c1 [Compound 207],+ (+ = pIC50 4.00-4.99)
4,CC(=O)N1CC=C(c2c[nH]c3ccc(C(F)(F)F)cc23)CC1 [Compound 229],+ (+ = pIC50 4.00-4.99)
5,CN(C)CCNC(=O)N1CCC(c2c[nH]c3ccccc23)CC1 [Compound 246],+ (+ = pIC50 4.00-4.99)
6,CN(C)S(=O)(=O)N1CCN(c2c[nH]c3ccccc23)CC1 [Compound 297],++ (++ = pIC50 5.00-5.99)
7,CCCc1cc(C(=O)N2CCC(c3c[nH]c4cc(F)ccc34)CC2)[nH]n1 [Compound 277],+ (+ = pIC50 4.00-4.99)
8,CC(=O)N1CCC(c2c[nH]c3ccc(C(F)(F)F)cc23)CC1 [Compound 241],+ (+ = pIC50 4.00-4.99)
9,CC(=O)N1CCN(c2c[nH]c3ccccc23)CC1C#N (centres unmarked) [Compound 313],+ (+ = pIC50 4.00-4.99)
10,O=C(c1cocn1)N1CCC(c2c[nH]c3cc(F)ccc23)CC1 [Compound 274],+ (+ = pIC50 4.00-4.99)
11,CS(=O)(=O)N1CCC(c2c[nH]c3ccc(Cl)cc23)CC1 [Compound 239],++ (++ = pIC50 5.00-5.99)
12,CCN1CC(C(=O)N2CCC(c3c[nH]c4cc(F)ccc34)CC2)CC1=O (centres unmarked) [Compound 268],+ (+ = pIC50 4.00-4.99)
13,CS(=O)(=O)N1CCC(c2c[nH]c3ccccc23)C(O)C1 (centres unmarked) [Compound 187],+ (+ = pIC50 4.00-4.99)
14,CC(C)C(=O)N1CCC(C(=O)N2CCC(c3c[nH]c4cc(F)ccc34)CC2)CC1 [Compound 267],+ (+ = pIC50 4.00-4.99)
15,CCNS(=O)(=O)N1CCC(c2c[nH]c3ccccc23)CC1 [Compound 258],+ (+ = pIC50 4.00-4.99)
16,O=S(=O)(N1CCOCC1)N1CCC(c2c[nH]c3ccccc23)CC1 [Compound 220],+ (+ = pIC50 4.00-4.99)
17,COCCNC(=O)N1CCC(c2c[nH]c3ccccc23)CC1 [Compound 212],+ (+ = pIC50 4.00-4.99)
18,CC(C)C(=O)N1CCC(c2c[nH]c3cc(F)ccc23)CC1 [Compound 266],+ (+ = pIC50 4.00-4.99)
19,COCC(=O)N1CCC(c2c[nH]c3cc(F)ccc23)CC1 [Compound 264],++ (++ = pIC50 5.00-5.99)
20,O=C(NCCO)N1CCC(c2c[nH]c3ccccc23)CC1 [Compound 226],+ (+ = pIC50 4.00-4.99)
21,O=S(=O)(c1ccccc1)N1CCC(c2c[nH]c3cc(F)ccc23)CC1 [Compound 300],++ (++ = pIC50 5.00-5.99)
22,COCCNS(=O)(=O)N1CCC(c2c[nH]c3ccccc23)CC1 [Compound 219],+ (+ = pIC50 4.00-4.99)
23,CS(=O)(=O)N1CC=C(c2c[nH]c3ccc(C#N)cc23)CC1 [Compound 230],++ (++ = pIC50 5.00-5.99)

row,SMILES,A172 Kynurenine cell based assay pIC50
1,Fc1ccc2c(C3CCN(c4nnn[nH]4)CC3)c[nH]c2c1 [Compound 290],+ (+ = pIC50 4.00-4.99)
2,O=C(C1CCOC1)N1CCC(c2c[nH]c3cc(F)ccc23)CC1 (centres unmarked) [Compound 262],+ (+ = pIC50 4.00-4.99)
3,CS(=O)(=O)N1CCN(c2c[nH]c3ccccc23)CC1C#N (centres unmarked) [Compound 314],++ (++ = pIC50 5.00-5.99)
4,O=C(c1ccno1)N1CCC(c2c[nH]c3cc(F)ccc23)CC1 [Compound 271],+ (+ = pIC50 4.00-4.99)
5,CS(=O)(=O)N1CCN(c2c[nH]c3ccccc23)CC1CN (centres unmarked) [Compound 318],++ (++ = pIC50 5.00-5.99)
6,CC(=O)N1CCC(c2c[nH]c3cc(C#N)ccc23)CC1 [Compound 237],+ (+ = pIC50 4.00-4.99)
7,CC(C)CN1CC(C(=O)N2CCC(c3c[nH]c4cc(F)ccc34)CC2)CC1=O (centres unmarked) [Compound 275],+ (+ = pIC50 4.00-4.99)
8,CC(=O)N1CCN(c2c[nH]c3ccccc23)CC1C (centres unmarked) [Compound 298],++ (++ = pIC50 5.00-5.99)
9,CS(=O)(=O)N1CCC(c2c[nH]c3c(F)cccc23)CC1 [Compound 194],+ (+ = pIC50 4.00-4.99)
10,Fc1ccc2c(C3CCN(c4cccnc4)CC3)c[nH]c2c1 [Compound 309],++ (++ = pIC50 5.00-5.99)
11,CS(=O)(=O)N1CCC(c2c[nH]c3cc(F)cc(F)c23)CC1 [Compound 216],+ (+ = pIC50 4.00-4.99)
12,CC(=O)N1CCC(c2c[nH]c3cc(F)cc(F)c23)CC1 [Compound 202],+ (+ = pIC50 4.00-4.99)
13,O=C1NCC2CN(c3c[nH]c4ccccc34)CCN12 (centres unmarked) [Compound 307],++ (++ = pIC50 5.00-5.99)
14,CC(=O)N1CCC(c2c[nH]c3cc(F)ccc23)CC1 [Compound 200],++ (++ = pIC50 5.00-5.99)
15,Cc1ccc2c(C3=CCN(S(C)(=O)=O)CC3)c[nH]c2c1 [Compound 206],++ (++ = pIC50 5.00-5.99)
16,Cn1cnc(C(=O)N2CCC(c3c[nH]c4cc(F)ccc34)CC2)c1 [Compound 272],+ (+ = pIC50 4.00-4.99)
17,c1ccc2c(N3CCn4ncnc4C3)c[nH]c2c1 [Compound 315],+ (+ = pIC50 4.00-4.99)
18,O=S(=O)(CC(F)(F)F)N1CCC(c2c[nH]c3cc(F)ccc23)CC1 [Compound 287],++ (++ = pIC50 5.00-5.99)
19,O=C(c1cnccn1)N1CCC(c2c[nH]c3cc(F)ccc23)CC1 [Compound 261],+ (+ = pIC50 4.00-4.99)
20,CC(=O)N1CC=C(c2c[nH]c3cc(F)cc(F)c23)CC1 [Compound 201],++ (++ = pIC50 5.00-5.99)
21,CS(=O)(=O)N1CC=C(c2c[nH]c3cc(C(F)(F)F)ccc23)CC1 [Compound 224],+ (+ = pIC50 4.00-4.99)
22,Fc1ccc2c(C3CCN(c4ccccc4)CC3)c[nH]c2c1 [Compound 303],++ (++ = pIC50 5.00-5.99)
